Assay results from patent US20060029544A1, “Receptor-binding cyclic peptides and methods of use” (The Regents of the University of California Office of …, priority 2004, published 2006).
Like-named read-outs stand apart in the source and are kept apart here.

Experiments:
[1] = system: A375M, a human melanoma which expresses αvβ3 integrin; assay: In vivo biodistribution in mice bearing A375M tumors; conditions: mouse
Description: (§1) In vivo biodistribution studies were performed in mice using A375M, a human melanoma which expresses αvβ3 integrin. MF1 nu/nu mice were given subcutaneous injections of A375M cells into the left inguinal region. Once tumors reached 4-10 mm in size, mice (n=5 mice per time point) were injected with 50 kBq of [^18F]-C7 and sacrificed at 15, 30, and 60 minutes after injection. A second group of animals (n=3) was injected with 50 kBq of [^18F]-C7, sacrificed at 30minutes after injection, and imaged using an ECAT 951R whole body PET scanner.

[2] = system: A375M, a human melanoma which expresses αvβ3 integrin; assay: PET imaging (ECAT 951R) of mice bearing A375M tumors; type: in vivo; conditions: 30 minutes after injection
Description: as §1

α5β1 integrin = target: T1, α5β1 integrin (Homo sapiens, UniProt P05556+P08648); assay: ELISA: soluble α5β1-hFc binding to immobilized 50 kDa fibronectin fragment in the presence of RGD peptides
T1 construct: chimeras comprising the extracellular domain of αvβ3, αvβ5, α5β1, and αIIbβ3 linked to the Fc domain of either mouse IgG; purchased Celltech plc (supplied, no catalogue number)
T1 sequence (P08648 42-995 limits assumed): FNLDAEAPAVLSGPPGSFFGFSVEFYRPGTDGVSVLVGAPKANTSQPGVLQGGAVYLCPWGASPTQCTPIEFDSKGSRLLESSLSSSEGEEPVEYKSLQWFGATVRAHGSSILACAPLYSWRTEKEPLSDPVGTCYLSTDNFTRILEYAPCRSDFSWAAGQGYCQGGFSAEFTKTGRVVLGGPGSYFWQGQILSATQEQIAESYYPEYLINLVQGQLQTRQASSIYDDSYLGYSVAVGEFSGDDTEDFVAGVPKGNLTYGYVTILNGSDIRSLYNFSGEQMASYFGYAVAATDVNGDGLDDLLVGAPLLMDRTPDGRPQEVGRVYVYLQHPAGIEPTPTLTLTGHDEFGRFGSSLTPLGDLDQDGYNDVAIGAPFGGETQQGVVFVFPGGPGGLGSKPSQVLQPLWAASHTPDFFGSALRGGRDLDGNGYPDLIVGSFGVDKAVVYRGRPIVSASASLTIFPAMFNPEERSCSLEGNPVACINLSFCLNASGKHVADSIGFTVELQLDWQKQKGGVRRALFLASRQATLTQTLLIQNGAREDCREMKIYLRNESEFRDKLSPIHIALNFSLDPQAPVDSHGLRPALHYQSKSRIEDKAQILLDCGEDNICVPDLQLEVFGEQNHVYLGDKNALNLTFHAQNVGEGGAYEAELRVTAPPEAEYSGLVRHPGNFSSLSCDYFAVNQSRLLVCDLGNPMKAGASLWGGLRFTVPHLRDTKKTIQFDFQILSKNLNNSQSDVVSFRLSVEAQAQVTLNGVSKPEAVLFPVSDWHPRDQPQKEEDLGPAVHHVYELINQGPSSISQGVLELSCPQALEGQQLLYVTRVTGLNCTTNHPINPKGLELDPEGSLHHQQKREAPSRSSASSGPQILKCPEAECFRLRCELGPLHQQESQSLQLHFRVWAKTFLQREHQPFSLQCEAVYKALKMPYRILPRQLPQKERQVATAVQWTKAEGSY
T1 sequence (P05556 21-728 limits assumed): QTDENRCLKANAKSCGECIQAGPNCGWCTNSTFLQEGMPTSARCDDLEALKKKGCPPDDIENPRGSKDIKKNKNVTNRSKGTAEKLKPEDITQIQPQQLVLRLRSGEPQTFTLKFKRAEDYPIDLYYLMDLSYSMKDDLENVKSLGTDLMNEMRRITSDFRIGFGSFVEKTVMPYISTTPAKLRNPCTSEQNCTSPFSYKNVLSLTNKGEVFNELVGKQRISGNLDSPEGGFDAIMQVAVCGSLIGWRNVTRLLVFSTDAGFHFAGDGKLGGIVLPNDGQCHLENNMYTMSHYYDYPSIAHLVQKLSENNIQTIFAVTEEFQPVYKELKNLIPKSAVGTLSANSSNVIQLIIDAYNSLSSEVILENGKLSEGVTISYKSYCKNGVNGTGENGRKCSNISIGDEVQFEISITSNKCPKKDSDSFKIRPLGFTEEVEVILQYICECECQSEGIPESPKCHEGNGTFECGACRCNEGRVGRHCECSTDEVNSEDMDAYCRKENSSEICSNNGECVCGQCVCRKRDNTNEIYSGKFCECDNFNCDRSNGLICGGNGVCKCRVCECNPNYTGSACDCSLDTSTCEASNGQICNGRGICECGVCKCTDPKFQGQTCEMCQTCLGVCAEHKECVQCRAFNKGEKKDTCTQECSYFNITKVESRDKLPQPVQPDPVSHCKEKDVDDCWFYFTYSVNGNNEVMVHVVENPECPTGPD
Source text: (§2) Four different soluble integrins were supplied by Celltech plc. Soluble forms of αvβ3, αvβ5, α5β1, and αIIbβ3 integrin were generated by constructing chimeras comprising the extracellular domain of αvβ3, αvβ5, α5β1, and αIIbβ3 linked to the Fc domain of either mouse IgG (αvβ3-mFc, αvβ5-mFc, and αIIbβ3-mFc) or human IgG (α5β1-hFc) as described by Stephens et al., Cell Adhes. Commun., 7:377-390 (2000) and Coe et al., J. Biol. Chem., 276:35854-35866 (2001). Since the four soluble integrin chimeras were supplied either as purified proteins (αvβ3-mFc and α5β1-hFc) or as unpurified hybridoma supernatants (αIIbβ3-mFc and αvβ5-mFc), it was necessary to use two types of ELISAs. […] In one type of ELISA (FIGS. 2A and 2B), the immobilized component is a 50 kDa fragment of fibronectin. In the second type of ELISA (FIGS. 2C and 2D), the immobilized component is a goat anti-mFc antibody that is used to capture chimeric proteins so that the RGD binding site of the integrin is maximally exposed. Each three-sided box in FIG. 2 represents a single well of a 96-well plate, and the components are listed in the sequence of their addition to the assay. The immobilized component at the bottom of the well is bound to the well by electrostatic interactions.
To analyze the affinity and selectively of RGD peptides for αvβ3 and α5β1, 96-well ELISA plates were coated with 100 μl of a 5 μg/ml of the 50 kDa fragment of fibronectin in PBS per well and left overnight at 4° C. The plates were washed with PBS using a Denley Wellwash 4 Mk 2. Washing was repeated twice with a 400 μl wash per well. 200 μ/well of blocking buffer (i.e., to prevent non-specific binding of proteins) was then added for 1 hour followed by a repeat washing with PBS. RGD peptides were then added at a maximum concentration of 200 μM and a preliminary screen was performed at three concentrations, 200,20, and 2 μM. 100 μl of an RGD peptide was added to each well and each assay was performed in triplicate. Purified soluble αvβ3-mFc or purified α5β1-hFc was diluted to 2 μg/ml and 15 ng/ml, respectively, in conjugate buffer and 100 μl was added to each well. The plates were incubated for 2 hours with shaking using a Luckham R100 Rotatest at approximately 150 rpm. After incubation, the plates were washed with PBS as previously described and a labeled antibody was added. For the αvβ3 assay, a horseradish peroxidase (HRP)-labeled F(ab′)2 fragment of goat anti-mouse IgG Fc was diluted 1:2000 in conjugate buffer and 100 μl was added to each well. For the α5β1 assay, an HRP-labeled F(ab′)2 fragment of goat anti-human IgG Fc was diluted 1:2000 in conjugate buffer and 100 μl was added to each well. Plates were incubated for 30 minutes with shaking followed by 2 washes with PBS. 100 μl of TMB substrate was added to each well and plates were shaken during a 10 minute color development. Plates were read using a plate spectrophotometer at 630 nm.
(§3) Two negative and two positive controls were used in both types of ELISAs. For example, the negative controls were wells that contained 50 μl of an active control peptide, integrin, and biotinylated ligand or 50 μl of the active control peptide and 50 μl of buffer. These negative control wells typically develop little to no color. […] These wells typically develop the maximum amount of color.
(§4) FIGS. 3-6 illustrate the percent binding of the vitronectin, fibronectin, or fibrinogen ligand to αvβ5, α5β1, αIIbβ3, or αvβ3 integrin in the presence of RGD peptides (i.e., linear (A), cyclic (B), or 4-[^19F]-fluorobenzoyl cyclic (C)) at different concentrations, with 100% maximum signal being the signal obtained in the absence of the peptide.

αvβ5 integrin = target: T2, αvβ5 integrin (Homo sapiens, UniProt P06756+P18084); assay: ELISA: biotinylated vitronectin binding to captured soluble αvβ5-mFc in the presence of RGD peptides
T2 construct: chimeras comprising the extracellular domain of αvβ3, αvβ5, α5β1, and αIIbβ3 linked to the Fc domain of either mouse IgG; purchased Celltech plc (supplied, no catalogue number); host or cells: unpurified hybridoma / tissue culture supernatant from secreting cells
T2 sequence (P06756 31-992 limits assumed): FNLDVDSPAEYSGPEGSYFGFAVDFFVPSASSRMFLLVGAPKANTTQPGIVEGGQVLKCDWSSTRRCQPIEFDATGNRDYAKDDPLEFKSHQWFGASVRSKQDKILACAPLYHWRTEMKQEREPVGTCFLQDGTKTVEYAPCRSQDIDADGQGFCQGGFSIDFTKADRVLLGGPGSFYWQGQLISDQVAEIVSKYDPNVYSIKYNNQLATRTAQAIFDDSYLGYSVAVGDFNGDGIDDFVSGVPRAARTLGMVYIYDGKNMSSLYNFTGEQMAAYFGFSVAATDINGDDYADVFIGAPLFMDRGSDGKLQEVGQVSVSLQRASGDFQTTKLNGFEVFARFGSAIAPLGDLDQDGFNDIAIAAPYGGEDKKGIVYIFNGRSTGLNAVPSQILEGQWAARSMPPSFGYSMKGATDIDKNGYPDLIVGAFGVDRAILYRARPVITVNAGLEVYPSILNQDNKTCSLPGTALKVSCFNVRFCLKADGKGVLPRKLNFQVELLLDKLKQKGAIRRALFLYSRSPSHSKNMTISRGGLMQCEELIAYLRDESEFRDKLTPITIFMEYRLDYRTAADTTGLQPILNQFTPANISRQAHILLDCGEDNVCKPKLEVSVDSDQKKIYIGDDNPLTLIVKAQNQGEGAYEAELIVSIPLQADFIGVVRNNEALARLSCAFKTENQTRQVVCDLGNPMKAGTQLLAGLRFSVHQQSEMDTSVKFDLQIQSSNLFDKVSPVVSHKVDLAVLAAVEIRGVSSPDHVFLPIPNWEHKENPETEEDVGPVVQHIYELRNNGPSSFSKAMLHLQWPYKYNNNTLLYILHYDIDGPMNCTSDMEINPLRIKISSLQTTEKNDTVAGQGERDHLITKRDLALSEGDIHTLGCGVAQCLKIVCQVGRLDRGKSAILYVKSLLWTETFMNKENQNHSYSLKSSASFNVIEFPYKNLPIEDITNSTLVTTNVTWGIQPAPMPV
T2 sequence (P18084 24-719 limits assumed): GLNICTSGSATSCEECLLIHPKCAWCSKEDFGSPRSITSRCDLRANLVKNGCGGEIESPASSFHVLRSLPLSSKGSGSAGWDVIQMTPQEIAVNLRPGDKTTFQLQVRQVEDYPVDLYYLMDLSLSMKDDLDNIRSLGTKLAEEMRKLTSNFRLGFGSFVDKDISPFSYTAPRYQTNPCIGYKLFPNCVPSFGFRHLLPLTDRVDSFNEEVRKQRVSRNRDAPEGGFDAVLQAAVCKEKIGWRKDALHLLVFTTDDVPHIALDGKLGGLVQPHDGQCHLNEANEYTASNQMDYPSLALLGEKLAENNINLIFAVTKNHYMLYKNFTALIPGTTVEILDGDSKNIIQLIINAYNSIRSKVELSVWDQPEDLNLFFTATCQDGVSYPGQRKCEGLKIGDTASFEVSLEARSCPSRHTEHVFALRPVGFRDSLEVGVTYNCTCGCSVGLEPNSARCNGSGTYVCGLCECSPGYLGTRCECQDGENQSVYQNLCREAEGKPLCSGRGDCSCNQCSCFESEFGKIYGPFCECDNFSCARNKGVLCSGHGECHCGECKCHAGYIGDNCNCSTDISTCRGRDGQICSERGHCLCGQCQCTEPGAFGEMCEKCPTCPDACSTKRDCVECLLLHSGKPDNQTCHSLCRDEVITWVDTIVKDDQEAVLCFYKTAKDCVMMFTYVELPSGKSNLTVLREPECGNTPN
Source text: as §2
To analyze the affinity and selectively of RGD peptides for αIIbβ3 and αvβ5, 96-well ELISA plates were coated with anti-murine Fc antibody at 5 μg/ml in PBS, 100 μl per well and left overnight at 4° C. The plates were washed with PBS using a Denley Wellwash 4 Mk 2. Washing was repeated twice with a 400 μl wash per well. 200 μl/well of blocking buffer was then added for 1 hour followed by a repeat washing with PBS. 100 μl of tissue culture supernatant from cells secreting soluble αIIbβ3-mFc or αvβ5-mFc, diluted 1:2 in conjugate buffer, was added to each well. Plates were incubated with shaking for 1 hour followed by two washes with PBS. 100 μl of an RGD peptide (at concentrations of 200, 20, and 2 μM), followed by either 100 μl of biotinylated fibrinogen (at 1 μg/ml in conjugate buffer) or 100 μl of biotinylated vitronectin (at 2 μg/ml in conjugate buffer) were added to each well and incubated for 2 hours with shaking. After incubation, the plates were washed with PBS as described above. 100 μl of neutravidin-peroxidase was added to each well and the plates were incubated for 30 minutes with shaking, followed by two washes with PBS. 100 μl of TMB substrate was added to each well and the plates were shaken during color development. Plates were read using a plate spectrophotometer at 630 nm.
as §3, §4

αvβ3 integrin = target: T3, αvβ3 integrin (Homo sapiens, UniProt P05106+P06756); assay: ELISA: soluble αvβ3-mFc binding to immobilized 50 kDa fibronectin fragment in the presence of RGD peptides; conditions: Table 2, no unit printed (b200 gives same values in μM)
T3 construct: chimeras comprising the extracellular domain of αvβ3, αvβ5, α5β1, and αIIbβ3 linked to the Fc domain of either mouse IgG; purchased Celltech plc (supplied, no catalogue number)
T3 sequence (P06756 31-992 limits assumed): as the sequence (P06756 31-992 limits assumed) above
T3 sequence (P05106 27-718 limits assumed): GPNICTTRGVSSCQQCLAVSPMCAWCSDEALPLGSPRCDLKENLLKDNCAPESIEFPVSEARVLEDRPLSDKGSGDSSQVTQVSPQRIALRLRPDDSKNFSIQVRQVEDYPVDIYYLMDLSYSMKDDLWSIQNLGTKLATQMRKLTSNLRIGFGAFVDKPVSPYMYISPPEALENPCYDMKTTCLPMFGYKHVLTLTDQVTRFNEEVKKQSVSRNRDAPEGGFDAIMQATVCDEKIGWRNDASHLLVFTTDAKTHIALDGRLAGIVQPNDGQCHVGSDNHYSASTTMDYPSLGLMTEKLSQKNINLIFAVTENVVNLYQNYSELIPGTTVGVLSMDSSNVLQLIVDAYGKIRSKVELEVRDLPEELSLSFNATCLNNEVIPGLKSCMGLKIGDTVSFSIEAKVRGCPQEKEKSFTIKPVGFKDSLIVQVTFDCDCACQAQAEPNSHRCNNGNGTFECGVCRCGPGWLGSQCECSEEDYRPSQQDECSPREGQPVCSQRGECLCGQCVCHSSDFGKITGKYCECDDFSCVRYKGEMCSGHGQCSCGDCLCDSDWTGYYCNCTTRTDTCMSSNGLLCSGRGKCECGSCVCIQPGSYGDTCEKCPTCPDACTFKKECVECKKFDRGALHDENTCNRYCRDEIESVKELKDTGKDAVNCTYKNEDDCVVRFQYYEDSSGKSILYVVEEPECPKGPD
Source text: as §2
The plates were washed with PBS using a Denley Wellwash 4 Mk 2. Washing was repeated twice with a 400 μl wash per well. […] Plates were read using a plate spectrophotometer at 630 nm.
(§5) Two negative and two positive controls were used in both types of ELISAs.
as §4

αIIbβ3 integrin = target: T4, αIIbβ3 integrin (Homo sapiens, UniProt P05106+P08514); assay: ELISA: biotinylated fibrinogen binding to captured soluble αIIbβ3-mFc in the presence of RGD peptides
T4 construct: chimeras comprising the extracellular domain of αvβ3, αvβ5, α5β1, and αIIbβ3 linked to the Fc domain of either mouse IgG; purchased Celltech plc (supplied, no catalogue number); host or cells: unpurified hybridoma / tissue culture supernatant from secreting cells
T4 sequence (P08514 32-993 limits assumed): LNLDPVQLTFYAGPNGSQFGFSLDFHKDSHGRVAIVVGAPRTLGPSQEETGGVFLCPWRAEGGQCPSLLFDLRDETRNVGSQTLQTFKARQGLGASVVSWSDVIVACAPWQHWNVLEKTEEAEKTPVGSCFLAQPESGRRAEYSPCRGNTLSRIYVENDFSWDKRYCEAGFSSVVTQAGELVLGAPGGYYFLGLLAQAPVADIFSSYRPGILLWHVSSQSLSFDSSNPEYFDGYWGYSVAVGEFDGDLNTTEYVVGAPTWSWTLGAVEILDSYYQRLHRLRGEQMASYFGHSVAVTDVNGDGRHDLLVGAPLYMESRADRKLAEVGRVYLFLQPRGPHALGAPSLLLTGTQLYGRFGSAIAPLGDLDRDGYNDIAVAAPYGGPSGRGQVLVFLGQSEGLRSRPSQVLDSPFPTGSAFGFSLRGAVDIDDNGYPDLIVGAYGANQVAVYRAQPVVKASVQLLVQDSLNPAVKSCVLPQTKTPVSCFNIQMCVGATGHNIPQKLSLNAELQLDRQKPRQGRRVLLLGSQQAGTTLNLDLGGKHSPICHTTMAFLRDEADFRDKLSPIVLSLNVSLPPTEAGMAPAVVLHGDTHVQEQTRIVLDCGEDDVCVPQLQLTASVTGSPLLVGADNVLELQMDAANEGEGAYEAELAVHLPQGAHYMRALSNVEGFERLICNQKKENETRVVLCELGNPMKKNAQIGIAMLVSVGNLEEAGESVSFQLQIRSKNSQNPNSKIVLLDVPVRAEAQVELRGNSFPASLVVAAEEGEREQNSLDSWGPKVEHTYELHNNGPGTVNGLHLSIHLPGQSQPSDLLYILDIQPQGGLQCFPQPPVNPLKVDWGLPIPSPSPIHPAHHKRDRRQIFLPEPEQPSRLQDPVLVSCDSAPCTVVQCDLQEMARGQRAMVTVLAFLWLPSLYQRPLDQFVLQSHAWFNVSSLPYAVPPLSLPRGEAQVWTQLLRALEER
T4 sequence (P05106 27-718 limits assumed): as the sequence (P05106 27-718 limits assumed) above
Source text: as §2
The plates were washed with PBS using a Denley Wellwash 4 Mk 2. Washing was repeated twice with a 400 μl wash per well. 200 μl/well of blocking buffer was then added for 1 hour followed by a repeat washing with PBS. 100 μl of tissue culture supernatant from cells secreting soluble αIIbβ3-mFc or αvβ5-mFc, diluted 1:2 in conjugate buffer, was added to each well. […] After incubation, the plates were washed with PBS as described above. 100 μl of neutravidin-peroxidase was added to each well and the plates were incubated for 30 minutes with shaking, followed by two washes with PBS. 100 μl of TMB substrate was added to each well and the plates were shaken during color development. Plates were read using a plate spectrophotometer at 630 nm.
as §5, §4

“4-[^18F]-fluorobenzoyl cyclic (RGDY(OMe)K) [[^18F]-C7]” was tested, and the “tumor to organ ratio, heart” value [1] was 5.83, the “tumor to organ ratio, lung” value [1] was 2.33 and the “tumor to organ ratio, muscle” value [1] was 11.67. For the same compound, the “tumor to organ ratio, skin” value [1] was 1.6 and the “uptake in PET images” value [2] was “distinct areas of [^18F]-C7 uptake in the lower region of the mouse”.
`COc1ccc(C[C@@H]2NC(=O)[C@H](CC(=O)O)NC(=O)CNC(=O)[C@H](CCCNC(=N)N)NC(=O)[C@H](CCCCNC(=O)c3ccc(F)cc3)NC2=O)cc1` [C7, 4-[^19F]-fluorobenzoyl cyclic (RGDY(OMe)K)] was tested, and the “fibronectin binding to α5β1, % of the maximum signal” value (α5β1 integrin; 2 μM peptide) was 47%, the IC50 (α5β1 integrin; text b200, read-out: IC50 for α5β1) was 0.481 µM and the “vitronectin binding to αvβ5, % of the maximum signal” value (αvβ5 integrin; 2 μM peptide, 100% = signal without peptide) was 26.1%. It also gave an IC50 (αvβ5 integrin; text b200, read-out: IC50 for αvβ5) of 1.69 µM.
With `N=C(N)NCCC[C@@H]1NC(=O)[C@H](CCCCNC(=O)c2ccc(F)cc2)NC(=O)[C@@H](Cc2ccccc2)NC(=O)[C@H](CC(=O)O)NC(=O)CNC1=O` [C10] the IC50 (αvβ3 integrin) was 0.018 µM, the IC50 (α5β1 integrin; Table 2, no unit printed (b200 gives same values in μM), read-out: Mean IC50, α5β1) was 1.37 µM and the “fibrinogen binding to αIIbβ3” value (αIIbβ3 integrin; 200 nM peptide) was 42.1%. For the same compound, the “fibrinogen binding to αIIbβ3, % of the maximum signal” value (αIIbβ3 integrin; 2 μM peptide) was 21.9%, the IC50 (αIIbβ3 integrin; Table 2, no unit printed (b200 gives same values in μM)) was 1.23 µM and the IC50 (αvβ5 integrin; Table 2, no unit printed (b200 gives same values in μM), read-out: Mean IC50, αvβ5) was 6.01 µM.
